Laboratory results taken from US6413541B1, “Disintegrating tablet in oral cavity and production thereof” (Dainippon Pharmaceutical Co., Ltd., priority 2000, dated 2002).
Read-outs that look alike come from different tables or passages of the source. One block for each molecule: values may come before it.

How the values were obtained:
[1] = Experimental: These saccharides can be used alone or in a mixture of two or more of these saccharides, and can usually be contained in an amount of about 0.1 to about 20% by weight, preferably in an amount of about 0.5 to about 10% by weight in the present tablet.
Purified water at 25° C. (20 ml) was put into a beaker, and thereto was added each saccharide under stirring. Xylitol, sorbitol, glucose and sucrose were added in portions of 1 g, and erythritol was added in portions of 0.5 g, and lactose and mannitol were added in portions of 0.1 g, each. The mixture was stirred for one hour, and the dissolved amount of each saccharide was determined. The amount dissolving in 100 ml of water was converted and used as solubility of the saccharide in the present specification.

[2] = in 100 ml of purified water at about 25° C.; Merck Index, 12th ed., 10220 (1996); cited from earlier work

Compound: OC[C@H]1O[C@@](CO)(O[C@H]2O[C@H](CO)[C@@H](O)[C@H](O)[C@H]2O)[C@@H](O)[C@@H]1O [sucrose]
solubility [1]: about 170 g

Compound: OC[C@@H](O)[C@H](O)[C@@H](O)CO [xylitol]
solubility [1]: about 135 g

Compound: O=C[C@H](O)[C@@H](O)[C@H](O)CO [xylose]
solubility [2]: about 125 g

Further lines, results first:

solubility [1]: about 47.5 g
Compound: OC[C@@H](O)[C@@H](O)CO [erythritol]

solubility [1]: about 130 g
Compound: OC[C@@H](O)[C@@H](O)[C@H](O)[C@@H](O)CO [sorbitol]
